Assay results published in patent publication US10100064B2, “Purine inhibitors of human phosphatidylinositol 3-kinase delta” (Merck Sharp & Dohme Corp., priority 2014, dated 2018).

How the values were obtained:
PI3Kdelta = biological target: T1, PI3Kdelta (Homo sapiens, UniProt O00329); test: HTRF PI3K biochemical assay, delta isoform; conditions: 0.3 nM enzyme, 100 uM ATP, 5 uM PIP2, form screened (Neutral or TFA salt) given per compound
T1 construct: purchased Upstate; Millipore 14-604
Summary of the method: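 PI3Kδ at 0.3 nM with 100 uM ATP and 5 uM PIP2, 10-point 3-fold dilutions, 15 min enzyme–compound pre-incubation, then 1 h reaction at room temperature. PIP3 formation detected by HTRF displacement of biotin-PIP3 from GST-GRP1-PH (665/620 nm ratio). IC50 corrected using a PIP3 standard curve.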

PI3Kalpha = biological target: T2, PI3Kalpha (Homo sapiens, UniProt P42336); test: HTRF PI3K biochemical assay, alpha isoform (selectivity versus delta); conditions: relative ratio PI3K-alpha IC50 value / PI3K-delta IC50 value
T2 construct: purchased Upstate; Millipore 14-602
Summary of the method: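 Recombinant PI3Kα (0.5 nM) pre-incubated 15 min with compound, then reacted 1 h at room temperature with 5 μM PIP2 and 100 μM ATP. After EDTA stop, PIP3 measured by HTRF displacement of biotin-PIP3 from GST-GRP1 PH domain (665/620 nm). 10-point dose response; IC50 corrected using a PIP3 standard curve.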

T1 sequence (O00329 whole entry, canonical isoform): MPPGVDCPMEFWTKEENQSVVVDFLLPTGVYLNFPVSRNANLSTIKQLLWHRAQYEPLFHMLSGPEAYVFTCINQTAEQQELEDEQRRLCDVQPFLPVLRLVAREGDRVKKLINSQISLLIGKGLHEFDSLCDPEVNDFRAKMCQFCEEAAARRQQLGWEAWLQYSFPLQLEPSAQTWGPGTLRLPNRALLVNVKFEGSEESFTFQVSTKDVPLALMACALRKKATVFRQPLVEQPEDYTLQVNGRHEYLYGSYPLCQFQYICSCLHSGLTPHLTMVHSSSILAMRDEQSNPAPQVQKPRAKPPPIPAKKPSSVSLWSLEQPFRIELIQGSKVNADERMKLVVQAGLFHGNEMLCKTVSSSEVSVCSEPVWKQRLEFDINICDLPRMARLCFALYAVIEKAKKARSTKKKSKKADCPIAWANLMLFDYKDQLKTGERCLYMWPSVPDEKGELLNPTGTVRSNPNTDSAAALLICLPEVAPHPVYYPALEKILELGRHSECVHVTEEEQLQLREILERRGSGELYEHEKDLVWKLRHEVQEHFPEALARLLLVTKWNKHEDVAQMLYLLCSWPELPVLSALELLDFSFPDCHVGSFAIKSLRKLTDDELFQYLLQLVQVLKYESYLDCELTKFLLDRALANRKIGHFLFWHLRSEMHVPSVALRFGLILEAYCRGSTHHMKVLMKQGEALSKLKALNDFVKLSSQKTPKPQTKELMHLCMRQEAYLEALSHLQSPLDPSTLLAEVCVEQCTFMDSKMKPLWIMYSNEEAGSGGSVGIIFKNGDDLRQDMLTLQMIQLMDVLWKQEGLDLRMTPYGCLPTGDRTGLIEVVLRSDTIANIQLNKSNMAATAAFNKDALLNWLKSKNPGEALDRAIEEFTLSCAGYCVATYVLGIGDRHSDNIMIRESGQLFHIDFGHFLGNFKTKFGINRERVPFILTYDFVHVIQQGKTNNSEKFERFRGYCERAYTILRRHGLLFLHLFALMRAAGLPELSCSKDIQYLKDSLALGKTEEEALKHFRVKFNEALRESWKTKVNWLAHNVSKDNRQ
T1 sequence (P27986 whole entry partner, canonical isoform): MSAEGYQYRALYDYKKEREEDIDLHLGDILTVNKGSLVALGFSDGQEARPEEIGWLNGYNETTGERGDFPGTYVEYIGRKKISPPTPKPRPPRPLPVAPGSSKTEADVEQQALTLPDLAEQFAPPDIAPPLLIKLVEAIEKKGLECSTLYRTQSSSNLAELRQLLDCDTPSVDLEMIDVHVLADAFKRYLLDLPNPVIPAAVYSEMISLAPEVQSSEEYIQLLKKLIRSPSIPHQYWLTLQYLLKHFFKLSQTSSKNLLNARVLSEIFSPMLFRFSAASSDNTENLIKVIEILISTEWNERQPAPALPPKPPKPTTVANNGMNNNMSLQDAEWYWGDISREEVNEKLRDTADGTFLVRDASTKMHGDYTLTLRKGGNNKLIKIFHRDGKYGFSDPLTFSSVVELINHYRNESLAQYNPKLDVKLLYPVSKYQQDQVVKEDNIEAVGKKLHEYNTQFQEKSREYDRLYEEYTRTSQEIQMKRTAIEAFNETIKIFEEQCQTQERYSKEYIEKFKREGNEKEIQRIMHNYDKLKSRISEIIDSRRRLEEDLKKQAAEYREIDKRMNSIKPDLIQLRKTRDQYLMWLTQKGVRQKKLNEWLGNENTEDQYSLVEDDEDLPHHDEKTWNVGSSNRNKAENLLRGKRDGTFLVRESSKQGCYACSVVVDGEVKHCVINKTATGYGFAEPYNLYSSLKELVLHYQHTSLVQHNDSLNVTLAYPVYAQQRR
T2 sequence (P42336 whole entry, canonical isoform): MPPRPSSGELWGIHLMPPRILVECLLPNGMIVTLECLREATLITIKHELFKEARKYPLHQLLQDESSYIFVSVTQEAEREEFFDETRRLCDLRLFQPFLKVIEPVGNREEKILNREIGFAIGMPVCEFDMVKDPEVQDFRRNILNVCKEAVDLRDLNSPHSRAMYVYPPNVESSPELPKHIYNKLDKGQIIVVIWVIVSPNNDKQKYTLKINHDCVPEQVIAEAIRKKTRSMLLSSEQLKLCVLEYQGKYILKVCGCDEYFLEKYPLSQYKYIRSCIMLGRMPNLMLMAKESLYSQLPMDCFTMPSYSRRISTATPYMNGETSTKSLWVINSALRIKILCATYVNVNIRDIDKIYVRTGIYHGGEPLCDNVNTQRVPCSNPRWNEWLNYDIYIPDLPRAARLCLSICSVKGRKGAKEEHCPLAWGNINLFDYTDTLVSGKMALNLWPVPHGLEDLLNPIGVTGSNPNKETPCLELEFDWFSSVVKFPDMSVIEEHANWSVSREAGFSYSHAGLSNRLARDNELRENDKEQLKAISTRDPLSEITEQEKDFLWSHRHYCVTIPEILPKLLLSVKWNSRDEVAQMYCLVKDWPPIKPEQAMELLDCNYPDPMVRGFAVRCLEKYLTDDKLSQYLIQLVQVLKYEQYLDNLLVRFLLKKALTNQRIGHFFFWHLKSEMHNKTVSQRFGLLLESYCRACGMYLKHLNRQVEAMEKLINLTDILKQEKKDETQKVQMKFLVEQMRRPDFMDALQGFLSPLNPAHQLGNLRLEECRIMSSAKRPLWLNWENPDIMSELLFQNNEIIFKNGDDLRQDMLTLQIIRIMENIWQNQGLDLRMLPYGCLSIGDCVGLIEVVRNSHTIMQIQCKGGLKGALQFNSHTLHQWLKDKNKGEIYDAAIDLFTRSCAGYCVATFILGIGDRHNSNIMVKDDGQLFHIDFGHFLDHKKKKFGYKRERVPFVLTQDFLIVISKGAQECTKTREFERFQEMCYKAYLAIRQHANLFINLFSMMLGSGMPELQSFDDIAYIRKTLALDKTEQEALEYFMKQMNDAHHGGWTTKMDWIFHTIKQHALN
T2 sequence (P27986 whole entry partner, canonical isoform): as the sequence (P27986 whole entry partner, canonical isoform) above

Row | IC50 (PI3Kdelta) [nM] | Selectivity versus PI3Kalpha (PI3Kalpha) | Structure (SMILES)
1 | 1.4 | >10 | CCn1c(-c2ccc(C(F)(F)F)cc2)nc2c(NC3CCc4nnc(C5CC5)n4C3)ncnc21 (single isomer, unassigned) [Compound 1-28, (S or R)-N-(3-cyclopropyl-5,6,7,8-tetrahydro[1,2,4]triazolo[4,3-a]pyridin-6-yl)-9-ethyl-8-[4-(trifluoromethyl)phenyl]-9H-purin-6-amine]
2 | 49 | >10 | CCn1c(-c2ccc(C(F)(F)F)cc2)nc2c(NC3CCc4nnc(C5CC5)n4C3)ncnc21 (single isomer, unassigned) [Compound 1-29, (S or R)-N-(3-cyclopropyl-5,6,7,8-tetrahydro[1,2,4]triazolo[4,3-a]pyridin-6-yl)-9-ethyl-8-[4-(trifluoromethyl)phenyl]-9H-purin-6-amine]
3 | 8.3 | >10 | CCn1c(-c2ccc(S(C)(=O)=O)nc2)nc2c(NC3CCc4nnc(C5CC5)n4C3)ncnc21 (single isomer, unassigned) [Compound 1-30, (S or R)-N-[(6S)-3-cyclopropyl-5,6,7,8-tetrahydro[1,2,4]triazolo[4,3-a]pyridin-6-yl]-9-ethyl-8-[6-(methylsulfonyl)pyridin-3-yl]-9H-purin-6-amine]
4 | 220 | >10 | CCn1c(-c2cnc(C)nc2)nc2c(OC3CCc4nnc(C5CC5)n4C3)ncnc21 (single isomer, unassigned) [Compound 1-31, (S or R)-6-{[3-cyclopropyl-5,6,7,8-tetrahydro[1,2,4]triazolo[4,3-a]pyridin-6-yl]oxy}-9-ethyl-8-(2-methylpyrimidin-5-yl)-9H-purine]
5 | 4.4 | >10 | CCn1c(-c2cnc(C)nc2)nc2c(OC3CCc4nnc(C5CC5)n4C3)ncnc21 (single isomer, unassigned) [Compound 1-32, (S or R)-6-{[3-cyclopropyl-5,6,7,8-tetrahydro[1,2,4]triazolo[4,3-a]pyridin-6-yl]oxy}-9-ethyl-8-(2-methylpyrimidin-5-yl)-9H-purine]
6 | 35 | >10 | CCn1c(-c2cnc(C)nc2)nc2c(OC3CCc4nnc(C(C)C)n4C3)ncnc21 (single isomer, unassigned) [Compound 1-33, (S or R)-9-ethyl-6-{[3-(1-methylethyl)-5,6,7,8-tetrahydro[1,2,4]triazolo[4,3-a]pyridin-6-yl]oxy}-8-(2-methylpyrimidin-5-yl)-9H-purine]
7 | 4.1 | >10 | CCn1c(-c2cnc(C)nc2)nc2c(OC3CCc4nnc(C(C)C)n4C3)ncnc21 (single isomer, unassigned) [Compound 1-34, (S or R)-9-ethyl-6-{[3-(1-methylethyl)-5,6,7,8-tetrahydro[1,2,4]triazolo[4,3-a]pyridin-6-yl]oxy}-8-(2-methylpyrimidin-5-yl)-9H-purine]
8 | 19 | >10 | CCn1c(-c2cnc(C)nc2)nc2c(OC3CCc4nnc(C5CCC5)n4C3)ncnc21 (single isomer, unassigned) [Compound 1-35, (S or R)-6-{[3-cyclobutyl-5,6,7,8-tetrahydro[1,2,4]triazolo[4,3-a]pyridin-6-yl]oxy}-9-ethyl-8-(2-methylpyrimidin-5-yl)-9H-purine]
9 | 1.1 | >10 | CCn1c(-c2cnc(C)nc2)nc2c(OC3CCc4nnc(C5CCC5)n4C3)ncnc21 (single isomer, unassigned) [Compound 1-36, (S or R)-6-{[3-cyclobutyl-5,6,7,8-tetrahydro[1,2,4]triazolo[4,3-a]pyridin-6-yl]oxy}-9-ethyl-8-(2-methylpyrimidin-5-yl)-9H-purine]
10 | 2.9 | >10 | CCn1c(-c2cnc(C)nc2)nc2c(NC3CCc4[nH]nc(C5CC5)c4C3)ncnc21 (single isomer, unassigned) [Compound 2-2, (S or R)-N-[3-cyclopropyl-4,5,6,7-tetrahydro-1H-indazol-5-yl]-9-ethyl-8-(2-methylpyrimidin-5-yl)-9H-purin-6-amine]
11 | 1.8 | >10 | CCn1c(-c2cnc(C)nc2)nc2c(NC3CCc4[nH]nc(C(C)C)c4C3)ncnc21 (single isomer, unassigned) [Compound 2-4, (S or R)-9-ethyl-N-[3-(1-methylethyl)-4,5,6,7-tetrahydro-1H-indazol-5-yl]-8-(2-methylpyrimidin-5-yl)-9H-purin-6-amine]
12 | 4.1 | >10 | CCn1c(-c2cnc(C)nc2)nc2c(NC3(C)CCc4[nH]nc(C(C)C)c4C3)ncnc21 (single isomer, unassigned) [Compound 2-5, (S or R)-9-ethyl-N-[5-methyl-3-(1-methylethyl)-4,5,6,7-tetrahydro-1H-indazol-5-yl]-8-(2-methylpyrimidin-5-yl)-9H-purin-6-amine]
13 | 21 | >10 | CCn1c(-c2cnc(C)nc2)nc2c(NC3(C)CCc4[nH]nc(C(C)C)c4C3)ncnc21 (single isomer, unassigned) [Compound 2-6, (S or R)-9-ethyl-N-[5-methyl-3-(1-methylethyl)-4,5,6,7-tetrahydro-1H-indazol-5-yl]-8-(2-methylpyrimidin-5-yl)-9H-purin-6-amine]
14 | 1.7 | >10 | CCn1c(-c2ccc(C(F)(F)F)cc2)nc2c(NC3CCc4[nH]nc(C(C)C)c4C3)ncnc21 (single isomer, unassigned) [Compound 2-7, (S or R)-9-ethyl-N-[3-(1-methylethyl)-4,5,6,7-tetrahydro-1H-indazol-5-yl]-8-[4-(trifluoromethyl)phenyl]-9H-purin-6-amine]
15 | 210 | >10 | CCn1c(-c2ccc(C(F)(F)F)cc2)nc2c(NC3CCc4[nH]nc(C(C)C)c4C3)ncnc21 (single isomer, unassigned) [Compound 2-8, (S or R)-9-ethyl-N-[3-(1-methylethyl)-4,5,6,7-tetrahydro-1H-indazol-5-yl]-8-[4-(trifluoromethyl)phenyl]-9H-purin-6-amine]
16 | 6.1 | >10 | CCCn1nc(C(C)C)c2c1CCC(Nc1ncnc3c1nc(-c1cnc(C)nc1)n3CC)C2 (single isomer, unassigned) [Compound 2-10, (S or R)-9-ethyl-N-[3-(1-methylethyl)-1-propyl-4,5,6,7-tetrahydro-1H-indazol-5-yl]-8-(2-methylpyrimidin-5-yl)-9H-purin-6-amine]
17 | 2.1 | >10 | CCn1c(-c2cnc(C)nc2)nc2c(NC3CCc4c(c(C(C)C)nn4CCO)C3)ncnc21 (single isomer, unassigned) [Compound 2-11, (S or R)-2-[5-{[9-ethyl-8-(2-methylpyrimidin-5-yl)-9H-purin-6-yl]amino}-3-(1-methylethyl)-4,5,6,7-tetrahydro-1H-indazol-1-yl]ethanol]
18 | 1 | >10 | CCn1c(-c2cnc(C)nc2)nc2c(NC3CCc4c(c(C(C)C)nn4C(=O)OC)C3)ncnc21 (single isomer, unassigned) [Compound 2-19, (S or R)-methyl 5-{[9-ethyl-8-(2-methylpyrimidin-5-yl)-9H-purin-6-yl]amino}-3-(1-methylethyl)-4,5,6,7-tetrahydro-1H-indazole-1-carboxylate]
19 | 41 | >10 | CCn1c(-c2cnc(C)nc2)nc2c(NC3CCc4nn(C)c(C(C)C)c4C3)ncnc21 (single isomer, unassigned) [Compound 2-24, (S or R)-9-ethyl-N-[(5S)-2-methyl-3-(1-methylethyl)-4,5,6,7-tetrahydro-2H-indazol-5-yl]-8-(2-methylpyrimidin-5-yl)-9H-purin-6-amine]
20 | 14 | >10 | CCn1c(-c2cnc(C)nc2)nc2c(NC3CCc4c(c(C(C)C)nn4C)C3)ncnc21 (single isomer, unassigned) [Compound 2-25, (S or R)-9-ethyl-N-[(5S)-1-methyl-3-(1-methylethyl)-4,5,6,7-tetrahydro-1H-indazol-5-yl]-8-(2-methylpyrimidin-5-yl)-9H-purin-6-amine]
21 | 11 | >10 | CCn1c(-c2cnc(C)nc2)nc2c(NC3CCc4cnc(C5CC5)n4C3)ncnc21 (single isomer, unassigned) [Compound 3-1, (S or R)-N-[3-cyclopropyl-5,6,7,8-tetrahydroimidazo[1,5-a]pyridin-6-yl]-9-ethyl-8-(2-methylpyrimidin-5-yl)-9H-purin-6-amine]
22 | 5.2 | >10 | CCn1c(-c2cnc(C)nc2)nc2c(NC3CCc4cnc(C(C)C)n4C3)ncnc21 (single isomer, unassigned) [Compound 3-2, (S or R)-9-ethyl-N-[3-(1-methylethyl)-5,6,7,8-tetrahydroimidazo[1,5-a]pyridin-6-yl)-8-(2-methylpyrimidin-5-yl)-9H-purin-6-amine]
23 | 6.9 | >10 | CCn1c(-c2cnc(C)nc2)nc2c(NC3CCc4ncc(C5CC5)n4C3)ncnc21 (single isomer, unassigned) [Compound 4-1, (S or R)-N-(3-cyclopropyl 5,6,7,8-tetrahydroimidazo[1,2-a]pyridin-6-yl)-9-ethyl-8-(2-methylpyrimidin-5-yl)-9H-purin-6-amine]
